Measurements taken from US8466172B2, “Stabilization of hypoxia inducible factor (HIF) alpha” (FibroGen, Inc., priority 2001, dated 2013).

What was measured:
[1] = test system: vascular endothelial growth factor (VEGF); experiment: VEGF expression in conditioned media, QUANTIKINE immunoassay; type: cell-based, human; conditions: HFF, 293A and Hep3B cells
Experimental: When cell layers reached confluence, the media was replaced with OPTI-MEM media (Invitrogen Life Technologies, Carlsbad Calif.) and cell layers were incubated for approximately 24 hours in 20% O2, 5% CO2 at 37° C. Compound of the invention (one of compounds A to O) or DMSO (0.5 to 1%) was then added to existing medium, and incubation was continued overnight.
Conditioned media collected from cell cultures grown as in Example 1 was analyzed for vascular endothelial growth factor (VEGF) expression using a QUANTIKINE immunoassay (R&D Systems) according to the manufacturer's instructions. […] Values on the y-axis represent fold-induction relative to control and are reported on a log2 scale, such that a value of 1 represents 2-fold induction.

[2] = test system: aldolase; conditions: 293A cells
Experimental: Alternatively, human cells derived from adenovirus-transformed fetal kidney epithelium (293A) were cultured in DMEM, 5% FBS, 1% Penicillin-Streptomycin at 37° C. and 10% CO2. […] Culture supernatant was then removed, the plates were placed on ice, lysis buffer (LB)-1 was added and the cells were harvested by scraping. The scraped cells were collected and incubated for 15 minutes on ice followed by centrifugation at 3000 g for 5 minutes at 4° C. The supernatant, which represents the cytosolic fraction, was collected and cytosolic proteins were separated under denaturing and reducing conditions using SDS polyacrylamide gels that were loaded with equal amounts of protein per lane.
Gel electrophoresis was conducted at 150 V for 2 hours, and after SDS-PAGE the proteins were transferred to a PVDF membrane for 1.5 hours at 400 mA at 4° C. The membrane was then incubated in blocking buffer, washed once with T-TBS, and then anti-aldolase antibody diluted to working concentration in blocking buffer was added and the blots were incubated over night with gentle agitation at 4° C. The membrane was then washed 4 times with T-TBS, followed by incubation for one hour at room temperature with blocking buffer containing labeled secondary antibody. The membrane was then washed four times with T-TBS. […]

[3] = test system: Wistar rats, myocardial infarction; conditions: one week after surgery
Experimental: Male Wistar rats (100-110 g), aged 4-5 weeks, were kept on a regular diet and a 12 hour day-night cycle. […] Animals were treated for two days prior to surgery and for one week following surgery. […] Ligation of the left anterior descending coronary artery was performed in artificially ventilated animals after left thoracotomy. Animals were sacrificed one week after surgery and echocardiography was performed. Fractional shortening, end-diastolic diameters, and end-systolic diameters were determined in a blinded fashion.

[4] = test system: vascular endothelial growth factor (VEGF) gene expression; experiment: VEGF gene expression in liver and kidney, quantitative PCR; type: in vivo; conditions: mouse, 200 mg/kg/day oral gavage, 2.5 days, four hours after final dose
Experimental: Four hours after the final dose, animals were anesthetized with isoflurane and a blood sample was collected from the abdominal vein. […] The mice were then sacrificed and approximately 150 mg of liver and each kidney were isolated and stored in [sequence] solution (Ambion) at −20° C.
RNA isolation was carried out using the following protocol. Tissue slices were cut into small pieces, 1.75 ml of RLT lysis buffer (RNEASY kit; Qiagen) was added, and the pieces were homogenized for about 20 seconds using a rotor-stator POLYTRON homogenizer (Kinematica, Inc., Cincinnati Ohio). […] The RNA was eluted into 80 μL of water and quantitated with RIBOGREEN reagent (Molecular Probes, Eugene Oreg.). […] The absorbance at 260 and 280 nm was measured to determine RNA purity and concentration.
cDNA synthesis was performed using 1W random hexamer primers, 1 μg of total RNA, and OMNISCRIPT reverse transcriptase (Qiagen), according to the manufacturer's instructions. […] Analysis of the relative level of vascular endothelial growth factor (VEGF) gene expression was performed by quantitative PCR using a [sequence] […]
The relative level of 18S ribosomal RNA gene expression was measured as a control. Quantitative PCR was performed using a [sequence] […]

[5] = test system: Wistar rats, toxic-ischemic liver injury; experiment: Toxic-ischemic liver injury (CCl4); type: in vivo, rat; conditions: 9 weeks
Experimental: The model of toxic-ischemic liver injury was described in Bickel et al. (supra). Briefly, male Wistar rats (212-320 g) either received 1 ml/kg carbon tetrachloride (CCl4) in olive oil (1:1) by gavage twice weekly for nine weeks (n=140) or received no treatment (controls; n=10). Additionally, a group of animals receiving CCl4 (n=60) also received compound P. The compound was administered by intraperitoneal injection twice daily at 60 mg compound/2 ml saline/kg body weight. After 9 weeks, the animals were sacrificed and the liver was weighed. Bilirubin, alanine transaminase, alkaline phosphatase, albumin, and total bile acids in serum were determined using commercially available kits.

[6] = test system: Wistar rats, toxic-ischemic liver injury; conditions: CCl4 + CPD, 9 weeks, 60 mg/kg intraperitoneal twice daily; cited from earlier work

COc1cc2cccnc2c2[nH]cc(C(=O)O)c(=O)c12 [Compound Q, 5-methoxy-4-oxo-1,4-dihydro-[1,10]phenanthroline-3-carboxylic acid]
VEGF expression in conditioned media (FIG. 4A) [1]: increase in VEGF expression

O=C(O)CNC(=O)c1nc(Cl)c2ccccc2c1O [Compound B, N-((1-chloro-4-hydroxy-isoquinoline-3-carbonyl)-amino)-acetic acid]
expression of aldolase over time (FIG. 4B) [2]: increased expression of aldolase
increase in end-diastolic diameter over sham operated animals [3]: 18%
increase in left ventricular end-systolic diameter over sham operated animals [3]: no increase
fractional shortening (FIG. 12A) ([3]; 50 mg/kg oral gavage two times per day from two days prior to surgery): 41%
VEGF expression in kidney (FIG. 6A) [4]: increased VEGF expression
VEGF expression in conditioned media (FIG. 4A) [1]: increase in VEGF expression

COC(=O)CNC(=O)c1nc(Cl)c2cc(OCc3ccccc3)ccc2c1O [Compound K, ((7-benzyloxy-1-chloro-4-hydroxy-isoquinoline-3-carbonyl)-amino)-acetic acid methyl ester]
VEGF expression in conditioned media (FIG. 4A) [1]: increase in VEGF expression

CC(C)Oc1ccc2nc(C(=O)NCC(=O)O)c(O)cc2c1 [Compound H, N-((3-hydroxy-6-isopropoxy-quinoline-2-carbonyl)-amino)-acetic acid]
VEGF expression in conditioned media (FIG. 4A) [1]: increase in VEGF expression

O=C(O)CNC(=O)c1nc(Cl)c2cc(OCc3ccccc3)ccc2c1O [Compound L, N-((7-benzyloxy-1-chloro-4-hydroxy-isoquinoline-3-carbonyl)-amino)-acetic acid]
VEGF expression in conditioned media (FIG. 4A) [1]: increase in VEGF expression

COc1ccc(CCN(CCC(=O)NO)S(=O)(=O)c2ccc(NC(=O)N(Cc3ccccc3)Cc3ccccc3)cc2)cc1 [Compound C, 3-{[4-(3,3-dibenzyl-ureido)-benzenesulfonyl]-[2-(4-methoxy-phenyl)-ethyl]-amino}-N-hydroxy-propionamide]
VEGF expression in conditioned media (FIG. 4A) [1]: increase in VEGF expression

COc1cccnc1C(=O)NCC(=O)O [Compound P, [(3-methoxy-pyridine-2-carbonyl)-amino]-acetic acid]
decrease in serum level of ALT in the treated group relative to the untreated group [5]: 43%
decrease in serum level of AP in the treated group relative to the untreated group [5]: 65%
decrease in serum level of BR in the treated group relative to the untreated group [5]: 64%
decrease in serum level of tBA in the treated group relative to the untreated group [5]: 65%
ALT (serum alanine transaminase) [6]: 59.0 ± 29.5 U/L
AP (serum alkaline phosphatase) [6]: 195 ± 72.7 U/L
BR (serum bilirubin) [6]: 2.83 ± 2.21 µmol/L
BW (body weight) [6]: 373 ± 38.9 g
tBA (serum total bile acids) [6]: 40.8 ± 51.4 µmol/L

O=[N+]([O-])c1ccnc2c(O)cccc12 [Compound E, 4-nitro-quinolin-8-ol]
VEGF expression in kidney (FIG. 6A) [4]: increased VEGF expression
